One assay concerns the target JAK2 (Homo sapiens (Human), UniProt O60674). Kind of assay: JAK2 inhibition assay. Type of assay: biochemical. As for the experimental part:
After 90 min at 30° C., reactions were stopped by adding of 25 μL/well of 150 mM phosphoric acid. […] Plates were washed 6 times with 300 μL per well of a 75 mM phosphoric acid solution and the bottom of the plates was sealed. 40 μL/well of Microscint-20 was added, the top of the plates was sealed and readout was performed using the Topcount (Perkin Elmer). Kinase activity was calculated by subtracting counts per minute (cpm) obtained in the presence of a positive control inhibitor (10 μM staurosporine) from cpm obtained in the presence of vehicle. The ability of a test compound to inhibit this activity was determined as:
(§1) Percentage inhibition=((cpm determined for sample with test compound present−cpm determined for sample with positive control inhibitor)divided by(cpm determined in the presence of vehicle−cpm determined for sample with positive control inhibitor))*100.
Dose dilution series were prepared for the compounds enabling the testing of dose-response effects in the JAK2 assay and the calculation of the IC50 for each compound.

For a further assay, the target named is JAK1 (Homo sapiens (Human), UniProt P23458). Kind of assay: JAK1 inhibition assay. Format: biochemical. As for the experimental part:
Plates were washed 6 times with 300 μL per well of a 75 mM phosphoric acid solution and the bottom of the plates was sealed. 40 μL/well of Microscint-20 was added, the top of the plates was sealed and readout was performed using the Topcount (Perkin Elmer). Kinase activity was calculated by subtracting counts per minute (cpm) obtained in the presence of a positive control inhibitor (10 μM staurosporine) from cpm obtained in the presence of vehicle. The ability of a test compound to inhibit this activity was determined as:
as §1
Dose dilution series were prepared for the compounds enabling the testing of dose-response effects in the JAK1 assay and the calculation of the IC50 for each compound.

Usually IC50 stands for the concentration that gives 50% inhibition. A high value points to weaker potency in that assay.

Where “and” joins values, the source holds several entries; their conditions need not be identical. Equal entries are not always repeated.

Chain of JAK2 (O60674 808-1132): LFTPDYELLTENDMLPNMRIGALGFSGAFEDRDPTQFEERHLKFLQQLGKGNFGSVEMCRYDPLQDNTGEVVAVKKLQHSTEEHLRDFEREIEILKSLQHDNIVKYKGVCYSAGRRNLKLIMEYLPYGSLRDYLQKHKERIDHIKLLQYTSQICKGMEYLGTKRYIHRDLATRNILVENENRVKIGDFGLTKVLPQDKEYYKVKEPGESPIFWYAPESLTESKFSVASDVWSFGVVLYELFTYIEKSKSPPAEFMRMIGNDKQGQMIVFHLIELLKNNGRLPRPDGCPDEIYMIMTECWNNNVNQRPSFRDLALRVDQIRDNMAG
Chain of JAK1 (P23458 850-1154): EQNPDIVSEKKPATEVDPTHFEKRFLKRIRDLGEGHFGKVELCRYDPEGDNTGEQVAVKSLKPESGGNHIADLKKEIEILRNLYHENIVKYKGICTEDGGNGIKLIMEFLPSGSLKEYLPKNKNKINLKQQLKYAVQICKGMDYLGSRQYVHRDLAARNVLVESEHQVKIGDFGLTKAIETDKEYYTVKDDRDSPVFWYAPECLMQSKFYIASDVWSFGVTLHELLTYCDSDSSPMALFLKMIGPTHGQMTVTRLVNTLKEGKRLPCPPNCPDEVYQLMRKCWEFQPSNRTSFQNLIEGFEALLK

Take `O=C(Nc1nc2cccc(-c3ccc(CN4CCCCC4)cc3)n2n1)C1CC1` [Compound 7, N-(5-(4-(piperidin-1-ylmethyl)phenyl)-[1,2,4]triazolo[1,5-a]pyridin-2-yl)cyclopropanecarboxamide]: the figures for the 50% inhibitory concentration (IC50) against JAK2 and against JAK1 were 6.45 µM and 504 nM, respectively. Regarding `O=C(Nc1nc2cccc(-c3ccc(N4CCOCC4)cc3)n2n1)C1CC1` [Compound 5, N-(5-(4-morpholinophenyl)-[1,2,4]triazolo[1,5-a]pyridin-2-yl)cyclopropanecarboxamide], the IC50 against JAK2 turned out to be 1.76 µM; on JAK1, 1450 nM.

Consider `CN1CCN(Cc2ccc(-c3cccc4nc(NC(=O)C5CC5)nn34)cc2)CC1` [Compound 6, N-(5-(4-((4-methylpiperazin-1-yl)methyl)phenyl)-[1,2,4]triazolo [1,5-a]pyridin-2-yl) cyclopropanecarboxamide], for which the figures for the IC50 against JAK2 and at JAK1 were 5.07 µM and 3450 nM, respectively. `NC(=O)C1CCN(Cc2ccc(-c3cccc4nc(NC(=O)C5CC5)nn34)cc2)CC1` [Compound 8]: the half-maximal inhibitory concentration (IC50) was 7.73 µM and 1.35 µM against JAK2; 435 nM at JAK1.

As for `CC(=O)N1CCN(Cc2ccc(-c3cccc4nc(NC(=O)C5CC5)nn34)cc2)CC1` [Compound 9, N-(5-(4-((4-acetoylpiperazin-1-yl)methyl)phenyl)-[1,2,4]triazolo[1,5-a]pyridin-2-yl)cyclopropanecarboxamide], the IC50 on JAK2 amounted to 0.849 µM; against JAK1, 334 nM. `O=C(Nc1nc2cccc(-c3ccc(N4CCOCC4)nc3)n2n1)C1CC1` [Compound 4, N-(5-(6-morpholinopyridin-3-yl)-[1,2,4]triazolo[1,5-a]pyridin-2-yl)cyclopropanecarboxamide] registered a 50% inhibitory concentration (IC50) against JAK1 of 1030 nM. That is a single-digit micromolar value.

For `O=C(Nc1nc2cccc(-c3cccc(CN4CCOCC4)c3)n2n1)C1CC1` [Compound 3, N-(5-(3-(morpholinomethyl)phenyl)-[1,2,4]triazolo[1,5-a]pyridin-2-yl)cyclopropanecarboxamide], the IC50 against JAK1 came to 291 nM.

Source of the values: patent US8563545B2, “Compound useful for the treatment of degenerative and inflammatory diseases” (Galapagos NV, priority 2009, dated 2013).
